From ChEMBL document CHEMBL1153872, “Synthesis, analgesic, anti-inflammatory and antimicrobial studies of 2,4-dichloro-5-fluorophenyl containing thiazolotriazoles” (2009)

Assays:
Type in all cases: functional
[1] = system: Rattus norvegicus; experiment: Antiinflammatory activity in Wister albino rat assessed as inhibition of carrageenan-induced paw edema at 50 mg/kg, po administered 30 mins before carrageenan challenge measured after 3 hrs relative to control
[2] = system: Mus musculus; experiment: Analgesic activity in albino mouse assessed as response latency time to pain stimulus at 25 mg/kg, po after 1 hr by hot plate method; design: unit not given here
[3] = system: Mus musculus; experiment: Analgesic activity in albino mouse assessed as response latency time to pain stimulus at 25 mg/kg, po after 3 hrs by hot plate method; design: unit not given here
[4] = system: Staphylococcus aureus; experiment: Antibacterial activity against Staphylococcus aureus after 24 hrs by disk diffusion method
[5] = system: Staphylococcus aureus; experiment: Antibacterial activity against Staphylococcus aureus after 24 hrs by broth dilution technique
[6] = system: Escherichia coli; experiment: Antibacterial activity against Escherichia coli after 24 hrs by disk diffusion method
[7] = system: Escherichia coli; experiment: Antibacterial activity against Escherichia coli after 24 hrs by broth dilution technique
[8] = system: Pseudomonas aeruginosa; experiment: Antibacterial activity against Pseudomonas aeruginosa after 24 hrs by disk diffusion method
[9] = system: Pseudomonas aeruginosa; experiment: Antibacterial activity against Pseudomonas aeruginosa after 24 hrs by broth dilution technique
[10] = system: Klebsiella pneumoniae; experiment: Antibacterial activity against Klebsiella pneumoniae after 24 hrs by disk diffusion method
[11] = system: Klebsiella pneumoniae; experiment: Antibacterial activity against Klebsiella pneumoniae after 24 hrs by broth dilution technique
[12] = system: Streptococcus pyogenes; experiment: Antibacterial activity against Streptococcus pyogenes after 24 hrs by disk diffusion method
[13] = system: Streptococcus pyogenes; experiment: Antibacterial activity against Streptococcus pyogenes after 24 hrs by broth dilution technique
[14] = system: Candida albicans; experiment: Antifungal activity against Candida albicans after 3 to 4 days by agar diffusion method
[15] = system: Candida albicans; experiment: Antifungal activity against Candida albicans after 48 hrs by twofold broth dilution method
[16] = system: Aspergillus niger; experiment: Antifungal activity against Aspergillus niger after 3 to 4 days by agar diffusion method
[17] = system: Aspergillus niger; experiment: Antifungal activity against Aspergillus niger after 48 hrs by twofold broth dilution method
[18] = system: Aspergillus fumigatus; experiment: Antifungal activity against Aspergillus fumigatus after 3 to 4 days by agar diffusion method
[19] = system: Aspergillus fumigatus; experiment: Antifungal activity against Aspergillus fumigatus after 48 hrs by twofold broth dilution method
[20] = system: Trichophyton mentagrophytes; experiment: Antifungal activity against Trichophyton mentagrophytes after 3 to 4 days by agar diffusion method
[21] = system: Trichophyton mentagrophytes; experiment: Antifungal activity against Trichophyton mentagrophytes after 48 hrs by twofold broth dilution method
[22] = system: Talaromyces marneffei; experiment: Antifungal activity against Penicillium marneffei after 3 to 4 days by agar diffusion method
[23] = system: Talaromyces marneffei; experiment: Antifungal activity against Penicillium marneffei after 48 hrs by twofold broth dilution method
[24] = system: Mus musculus; experiment: Analgesic activity in albino mouse assessed as response latency time to pain stimulus at 5 mg/kg, ip after 1 hr by hot plate method; settings: route intraperitoneal
[25] = system: Mus musculus; experiment: Analgesic activity in albino mouse assessed as response latency time to pain stimulus at 5 mg/kg, ip after 3 hrs by hot plate method; settings: route intraperitoneal

For Fc1ccc(-c2csc3nc(-c4cc(F)c(Cl)cc4Cl)nn23)cc1, the inhibition in vivo at 50 mg/kg [1] was 48.8%, the Time [2] was 8.3 and the Time [3] was 8.2. The “Diameter of inhibition zone” value [4] was 18 mm, the MIC [5] was 12.5 microg/cm3 and the “Diameter of inhibition zone” value [6] was 23 mm. For the same molecule, the MIC [7] was 6.25 microg/cm3, the “Diameter of inhibition zone” value [8] was 28 mm and the MIC [9] was 6.25 microg/cm3. The “Diameter of inhibition zone” value [10] was 20 mm, the MIC [11] was 6.25 microg/cm3 and the “Diameter of inhibition zone” value [12] was 21 mm. For the same molecule, the MIC [13] was 6.25 microg/cm3, the “Diameter of inhibition zone” value [14] was 19 mm and the MIC [15] was 6.25 microg/cm3. The “Diameter of inhibition zone” value [16] was 21 mm, the MIC [17] was 6.25 microg/cm3 and the “Diameter of inhibition zone” value [18] was 29 mm. The MIC [19] was 6.25 microg/cm3, the “Diameter of inhibition zone” value [20] was 17 mm and the MIC [21] was 6.25 microg/cm3. For the same molecule, the “Diameter of inhibition zone” value [22] was 21 mm and the MIC [23] was 6.25 microg/cm3.

For O=C(O)c1cn(C2CC2)c2cc(N3CCNCC3)c(F)cc2c1=O [CIPROFLOXACIN], the “Diameter of inhibition zone” value [4] was 23 mm, the MIC [5] was 6.25 microg/cm3 and the “Diameter of inhibition zone” value [6] was 29 mm. For the same molecule, the MIC [7] was 6.25 microg/cm3, the “Diameter of inhibition zone” value [8] was 32 mm and the MIC [9] was 6.25 microg/cm3. For the same molecule, the “Diameter of inhibition zone” value [10] was 21 mm, the MIC [11] was 6.25 microg/cm3 and the “Diameter of inhibition zone” value [12] was 25 mm. For the same molecule, the MIC [13] was 6.25 microg/cm3.

In the case of COc1ccc(-c2csc3nc(-c4cc(F)c(Cl)cc4Cl)nn23)cc1, the inhibition in vivo at 50 mg/kg [1] is reported as 40.6%, the Time [2] is reported as 11.1 and the Time [3] is reported as 11.96. For the same molecule, the “Diameter of inhibition zone” value [4] was 21 mm, the MIC [5] was 6.25 microg/cm3 and the “Diameter of inhibition zone” value [6] was 25 mm. For the same molecule, the MIC [7] was 6.25 microg/cm3, the “Diameter of inhibition zone” value [8] was 30 mm and the MIC [9] was 6.25 microg/cm3. The “Diameter of inhibition zone” value [10] was 19 mm, the MIC [11] was 6.25 microg/cm3 and the “Diameter of inhibition zone” value [12] was 23 mm. The MIC [13] was 6.25 microg/cm3, the “Diameter of inhibition zone” value [14] was 17 mm and the MIC [15] was 6.25 microg/cm3. For the same molecule, the “Diameter of inhibition zone” value [16] was 20 mm, the MIC [17] was 6.25 microg/cm3 and the MIC [19] was over 100 microg/cm3. The “Diameter of inhibition zone” value [20] was 14 mm, the MIC [21] was 12.5 microg/cm3 and the “Diameter of inhibition zone” value [22] was 17 mm. For the same molecule, the MIC [23] was 6.25 microg/cm3.

In the case of C[C@@H]1[C@H](O)[C@@H](C)/C=C/C=C/C=C/C=C/C=C/C=C/C=C/[C@H](O[C@@H]2O[C@H](C)[C@@H](O)[C@H](N)[C@@H]2O)C[C@@H]2O[C@](O)(C[C@@H](O)C[C@@H](O)[C@H](O)CC[C@@H](O)C[C@@H](O)CC(=O)O[C@H]1C)C[C@H](O)[C@H]2C(=O)O [AMPHOTERICIN B], the “Diameter of inhibition zone” value [14] is reported as 20 mm, the MIC [15] is reported as 6.25 microg/cm3 and the “Diameter of inhibition zone” value [16] is reported as 25 mm. For the same molecule, the MIC [17] was 12.5 microg/cm3, the “Diameter of inhibition zone” value [18] was 21 mm and the MIC [19] was 6.25 microg/cm3. For the same molecule, the “Diameter of inhibition zone” value [20] was 19 mm, the MIC [21] was 6.25 microg/cm3 and the “Diameter of inhibition zone” value [22] was 23 mm. It also gave an MIC [23] of 6.25 microg/cm3.

Molecule CCOC(=O)C1(c2ccccc2)CCN(C)CC1 [MEPERIDINE] has a Time [24] of 16.4 h and a Time [25] of 14.3 h.

Fc1cc(-c2nc3scc(-c4ccc(Cl)cc4Cl)n3n2)c(Cl)cc1Cl was tested, and the inhibition in vivo at 50 mg/kg [1] was 17.2%, the Time [2] was 8.96 and the Time [3] was 9.6. The “Diameter of inhibition zone” value [4] was 14 mm, the MIC [5] was 12.5 microg/cm3 and the “Diameter of inhibition zone” value [6] was 11 mm. The MIC [7] was 12.5 microg/cm3, the “Diameter of inhibition zone” value [8] was 13 mm and the MIC [9] was 12.5 microg/cm3. For the same molecule, the “Diameter of inhibition zone” value [10] was 13 mm, the MIC [11] was 12.5 microg/cm3 and the “Diameter of inhibition zone” value [12] was 15 mm. For the same molecule, the MIC [13] was 6.25 microg/cm3, the “Diameter of inhibition zone” value [14] was 10 mm and the MIC [15] was 25 microg/cm3. For the same molecule, the “Diameter of inhibition zone” value [16] was 14 mm, the MIC [17] was 12.5 microg/cm3 and the “Diameter of inhibition zone” value [18] was 8 mm. The MIC [19] was 25 microg/cm3, the MIC [21] was over 100 microg/cm3 and the “Diameter of inhibition zone” value [22] was 12 mm. For the same molecule, the MIC [23] was 12.5 microg/cm3.
